{"source": "patent US9974888B2", "about": "“Formulations for drug-coated medical devices” (priority 2010, dated 2018)", "experiment": "Dye loss from coated membranes type P in stirred saline", "type": "physicochemical", "conditions": "water-soluble dye, stirred saline at 37° C., 5 min", "from_the_text": "Membranes type P were coated either with a water-soluble dye without resveratrol or combined with resveratrol.", "data": [{"compound": "Oc1ccc(C=Cc2cc(O)cc(O)c2)cc1", "note": "[Resveratrol, resveratrol]", "values": [{"measurement": "adhesion of the dye", "result": "significantly improved the adhesion of the dye"}]}]}
